A short description of data set [1]: Binding affinity to recombinant G-CSFR extracellular domain (unknown origin) by surface plasmon resonance analysis. On the set-up: species or system Homo sapiens.
Data set [2] in a line: Stability of the compound at 20 deg C assessed as change in alpha-helical structure by CD spectra analysis. It is filed as physicochemical.
In data set [3] the target is T1, Granulocyte colony-stimulating factor receptor (Homo sapiens) (UniProt Q99062).
T1 sequence (whole entry): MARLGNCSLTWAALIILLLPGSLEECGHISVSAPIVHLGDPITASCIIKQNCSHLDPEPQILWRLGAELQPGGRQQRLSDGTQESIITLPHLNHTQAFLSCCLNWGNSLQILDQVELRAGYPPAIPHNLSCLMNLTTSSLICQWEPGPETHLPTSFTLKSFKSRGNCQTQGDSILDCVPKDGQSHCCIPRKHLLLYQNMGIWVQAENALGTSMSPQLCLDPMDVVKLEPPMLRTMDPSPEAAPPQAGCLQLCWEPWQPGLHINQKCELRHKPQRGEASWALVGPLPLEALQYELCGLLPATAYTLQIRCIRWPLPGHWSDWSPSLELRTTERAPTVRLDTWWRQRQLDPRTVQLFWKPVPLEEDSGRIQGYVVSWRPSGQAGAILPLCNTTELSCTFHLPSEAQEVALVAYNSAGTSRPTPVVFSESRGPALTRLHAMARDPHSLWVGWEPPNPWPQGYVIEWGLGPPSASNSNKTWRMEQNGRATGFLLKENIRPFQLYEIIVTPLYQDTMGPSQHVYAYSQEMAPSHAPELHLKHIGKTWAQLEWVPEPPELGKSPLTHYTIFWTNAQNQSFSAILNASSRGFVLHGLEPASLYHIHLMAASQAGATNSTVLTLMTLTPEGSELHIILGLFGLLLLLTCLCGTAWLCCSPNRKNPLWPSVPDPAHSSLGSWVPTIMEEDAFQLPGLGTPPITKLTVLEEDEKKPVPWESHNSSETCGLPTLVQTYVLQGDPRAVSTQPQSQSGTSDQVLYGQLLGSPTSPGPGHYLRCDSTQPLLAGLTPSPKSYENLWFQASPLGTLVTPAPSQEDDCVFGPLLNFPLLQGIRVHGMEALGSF
In words: Potency index, ratio of P8-2KA KD to test compound KD for binding affinity to recombinant G-CSFR extracellular domain (unknown origin).

Results on eight compounds are retold here after ChEMBL document CHEMBL6114948, “Deep mutational scanning-guided design of a high-affinity helix-loop-helix peptide targeting G-CSF receptor” (Bioorg Med Chem Lett, 2025).

Residues, ends and D or L forms follow the SMILES beside them.

As for `CC[C@H](C)[C@H](NC(=O)[C@H](C)NC(=O)[C@H](CC(C)C)NC(=O)[C@H](CCC(=O)O)NC(=O)[C@H](C)NC(=O)[C@H](C)NC(=O)[C@@H](N)CS)C(=O)N[C@@H](CC(C)C)C(=O)N[C@@H](CCC(=O)O)C(=O)N[C@@H](C)C(=O)N[C@@H](CCC(=O)O)C(=O)N[C@H](C(=O)N[C@@H](C)C(=O)N[C@@H](C)C(=O)N[C@@H](CC(C)C)C(=O)N[C@@H](CCC(=O)O)C(=O)NCC(=O)NCC(=O)NCC(=O)NCC(=O)NCC(=O)NCC(=O)NCC(=O)N[C@@H](Cc1ccc(O)cc1)C(=O)N[C@@H](CC(C)C)C(=O)N[C@@H](CCC(=O)O)C(=O)N[C@@H](CCSC)C(=O)N[C@@H](CC(C)C)C(=O)N[C@@H](CCCCN)C(=O)N[C@@H](CC(C)C)C(=O)N[C@@H](CCCCN)C(=O)N[C@@H](CC(C)C)C(=O)N[C@@H](C)C(=O)N[C@@H](CCC(=O)O)C(=O)N[C@@H](CC(C)C)C(=O)N[C@@H](CCCCN)C(=O)N[C@@H](CCCNC(=N)N)C(=O)N[C@@H](Cc1ccc(O)cc1)C(=O)N[C@@H](CS)C(=O)O)[C@@H](C)CC` (H-CAAELAILEAEIAALEGGGGGGGYLEMLKLKLAELKRYC-OH), the dissociation constant (Kd) in data set [1] was 2.8 nM.
“H-AELAILEAEIAALEGGGGGGGYLEMLKLKLAEAKRY-OH”: the Kd in data set [1] worked out at 16 nM. Further, in data set [2], the Stability entry was “Stable”. Also, the Ratio in data set [3] was 24.
For `CC[C@H](C)[C@H](NC(=O)[C@H](C)NC(=O)[C@H](CC(C)C)NC(=O)[C@H](CCC(=O)O)NC(=O)[C@H](C)NC(=O)[C@H](C)NC(=O)[C@@H](N)CS)C(=O)N[C@@H](CC(C)C)C(=O)N[C@@H](CCC(=O)O)C(=O)N[C@@H](C)C(=O)N[C@@H](CCC(=O)O)C(=O)N[C@H](C(=O)N[C@@H](C)C(=O)N[C@@H](C)C(=O)N[C@@H](CC(C)C)C(=O)N[C@@H](CCC(=O)O)C(=O)NCC(=O)NCC(=O)NCC(=O)NCC(=O)NCC(=O)NCC(=O)NCC(=O)N[C@@H](CCCCN)C(=O)N[C@@H](CC(C)C)C(=O)N[C@@H](CCC(=O)O)C(=O)N[C@@H](CCSC)C(=O)N[C@@H](CC(C)C)C(=O)N[C@@H](CCCCN)C(=O)N[C@@H](CC(C)C)C(=O)N[C@@H](CCCCN)C(=O)N[C@@H](CC(C)C)C(=O)N[C@@H](C)C(=O)N[C@@H](CCC(=O)O)C(=O)N[C@@H](C)C(=O)N[C@@H](CCCCN)C(=O)N[C@@H](CCCNC(=N)N)C(=O)N[C@@H](Cc1ccc(O)cc1)C(=O)N[C@@H](CS)C(=O)O)[C@@H](C)CC` (H-CAAELAILEAEIAALEGGGGGGGKLEMLKLKLAEAKRYC-OH), the equilibrium dissociation constant (Kd) in data set [1] turned out to be 0.89 nM.
Same read-out and setting: as for `CC[C@H](C)[C@H](NC(=O)[C@H](C)NC(=O)[C@H](CC(C)C)NC(=O)[C@H](CCC(=O)O)NC(=O)[C@H](C)NC(=O)[C@H](C)NC(=O)[C@@H](N)CS)C(=O)N[C@@H](CC(C)C)C(=O)N[C@@H](CCC(=O)O)C(=O)N[C@@H](C)C(=O)N[C@@H](CCC(=O)O)C(=O)N[C@@H](CC(C)C)C(=O)N[C@@H](C)C(=O)N[C@@H](C)C(=O)N[C@@H](CC(C)C)C(=O)N[C@@H](CCC(=O)O)C(=O)NCC(=O)NCC(=O)NCC(=O)NCC(=O)NCC(=O)NCC(=O)NCC(=O)N[C@@H](Cc1ccc(O)cc1)C(=O)N[C@@H](CC(C)C)C(=O)N[C@@H](CCC(=O)O)C(=O)N[C@@H](CCSC)C(=O)N[C@@H](CC(C)C)C(=O)N[C@@H](CCCCN)C(=O)N[C@@H](CC(C)C)C(=O)N[C@@H](CCCCN)C(=O)N[C@@H](CC(C)C)C(=O)N[C@@H](C)C(=O)N[C@@H](CCC(=O)O)C(=O)N[C@@H](C)C(=O)N[C@@H](CCCCN)C(=O)N[C@@H](CCCNC(=N)N)C(=O)N[C@@H](Cc1ccc(O)cc1)C(=O)N[C@@H](CS)C(=O)O` (H-CAAELAILEAELAALEGGGGGGGYLEMLKLKLAEAKRYC-OH), the figure is 0.49 nM; as for `CC[C@H](C)[C@H](NC(=O)[C@H](CCC(=O)O)NC(=O)[C@H](C)NC(=O)[C@H](CCC(=O)O)NC(=O)[C@H](CC(C)C)NC(=O)[C@H](C)NC(=O)[C@H](C)NC(=O)[C@H](CC(C)C)NC(=O)[C@H](CCC(=O)O)NC(=O)[C@H](C)NC(=O)[C@H](C)NC(=O)[C@@H](N)CS)C(=O)N[C@@H](C)C(=O)N[C@@H](C)C(=O)N[C@@H](CC(C)C)C(=O)N[C@@H](CCC(=O)O)C(=O)NCC(=O)NCC(=O)NCC(=O)NCC(=O)NCC(=O)NCC(=O)NCC(=O)N[C@@H](Cc1ccc(O)cc1)C(=O)N[C@@H](CC(C)C)C(=O)N[C@@H](CCC(=O)O)C(=O)N[C@@H](CCSC)C(=O)N[C@@H](CC(C)C)C(=O)N[C@@H](CCCCN)C(=O)N[C@@H](CC(C)C)C(=O)N[C@@H](CCCCN)C(=O)N[C@@H](CC(C)C)C(=O)N[C@@H](C)C(=O)N[C@@H](CCC(=O)O)C(=O)N[C@@H](C)C(=O)N[C@@H](CCCCN)C(=O)N[C@@H](CCCNC(=N)N)C(=O)N[C@@H](Cc1ccc(O)cc1)C(=O)N[C@@H](CS)C(=O)O` (H-CAAELAALEAEIAALEGGGGGGGYLEMLKLKLAEAKRYC-OH), 0.24 nM; as for `CC[C@H](C)[C@H](NC(=O)[C@H](C)NC(=O)[C@H](CC(C)C)NC(=O)[C@H](CCC(=O)O)NC(=O)[C@H](C)NC(=O)[C@H](C)NC(=O)[C@@H](N)CS)C(=O)N[C@@H](CC(C)C)C(=O)N[C@@H](CCC(=O)O)C(=O)N[C@@H](C)C(=O)N[C@@H](CCC(=O)O)C(=O)N[C@H](C(=O)N[C@@H](C)C(=O)N[C@@H](C)C(=O)N[C@@H](CC(C)C)C(=O)N[C@@H](CCC(=O)O)C(=O)NCC(=O)NCC(=O)NCC(=O)NCC(=O)NCC(=O)NCC(=O)NCC(=O)N[C@@H](Cc1ccc(O)cc1)C(=O)N[C@@H](CC(C)C)C(=O)N[C@@H](C)C(=O)N[C@@H](CCSC)C(=O)N[C@@H](CC(C)C)C(=O)N[C@@H](CCCCN)C(=O)N[C@@H](CC(C)C)C(=O)N[C@@H](CCCCN)C(=O)N[C@@H](CC(C)C)C(=O)N[C@@H](C)C(=O)N[C@@H](CCC(=O)O)C(=O)N[C@@H](C)C(=O)N[C@@H](CCCCN)C(=O)N[C@@H](CCCNC(=N)N)C(=O)N[C@@H](Cc1ccc(O)cc1)C(=O)N[C@@H](CS)C(=O)O)[C@@H](C)CC` (H-CAAELAILEAEIAALEGGGGGGGYLAMLKLKLAEAKRYC-OH), 0.16 nM.
Regarding `CC[C@H](C)[C@H](NC(=O)[C@H](C)NC(=O)[C@H](CC(C)C)NC(=O)[C@H](CCC(=O)O)NC(=O)[C@H](C)NC(=O)[C@H](C)NC(=O)[C@@H](N)CS)C(=O)N[C@@H](CC(C)C)C(=O)N[C@@H](CCC(=O)O)C(=O)N[C@@H](C)C(=O)N[C@@H](CCC(=O)O)C(=O)N[C@H](C(=O)N[C@@H](C)C(=O)N[C@@H](C)C(=O)N[C@@H](CC(C)C)C(=O)N[C@@H](CCC(=O)O)C(=O)NCC(=O)NCC(=O)NCC(=O)NCC(=O)NCC(=O)NCC(=O)NCC(=O)N[C@@H](Cc1ccc(O)cc1)C(=O)N[C@@H](CC(C)C)C(=O)N[C@@H](CCC(=O)O)C(=O)N[C@@H](CCSC)C(=O)N[C@@H](CC(C)C)C(=O)N[C@@H](CCCCN)C(=O)N[C@@H](CC(C)C)C(=O)N[C@@H](CCCCN)C(=O)N[C@@H](CC(C)C)C(=O)N[C@@H](C)C(=O)N[C@@H](CCC(=O)O)C(=O)N[C@@H](C)C(=O)N[C@@H](CCCCN)C(=O)N[C@@H](CCCNC(=N)N)C(=O)N[C@@H](Cc1ccc(O)cc1)C(=O)N[C@@H](CS)C(=O)O)[C@@H](C)CC` (H-CAAELAILEAEIAALEGGGGGGGYLEMLKLKLAEAKRYC-OH), in data set [1], the Kd is 0.18 nM.
“H-AELAALEAELAALEGGGGGGGKLAMLKLKLAELKRY-OH”: in data set [1], the equilibrium dissociation constant (Kd) turned out to be 380 nM. Also, the Stability result in data set [2] was “Stable”.
